In patent US8012944B2, “Method for treating cancer using IAP antisense oligomer and chemotherapeutic agent” (Pharmascience Inc., priority 2003, dated 2011):
Oligonucleotides are written 5' to 3', each unit as a sugar letter and its base; * is a phosphorothioate linkage, no mark a phosphodiester; rarer units and linkages stand in square brackets, end groups in braces. Plain capitals give the bases only. d = 2'-deoxy (DNA); m = 2'-O-methyl

Key:
XIAP mRNA [1] = assay: XIAP mRNA knock-down in H460 cells (real-time RT-PCR / TaqMan); type: cell-based, human
Procedure: RNA was extracted from cells lysed in RLT buffer (QIAGEN, Valencia, Calif.), and purified using QIAGEN RNeasy columns/kits. Real-time quantitative PCR was performed on a Perkin-Elmer ABI 7700 Prism PCR machine. RNA was reverse transcribed and amplified according to the TaqMan Universal PCR Master Mix protocol of PE Biosystems, using primers and probes designed to specifically recognize XIAP, HIAP1, survivin, or GAPDH. For human survivin, the forward primer was 5′-[…]-3′ (SEQ ID NO: 263), the reverse primer was 5′-GAAAGGAAAGCGCAACCG-3′ (SEQ ID NO: 264), and the probe was 5′-(FAM)[…](TAMRA)-3′ (SEQ ID NO: 265). For human HIAP1, the forward primer was 5′-[…]-3′ (SEQ ID NO: 266), the reverse primer was 5′-[…]-3′ (SEQ ID NO: 267), and the probe was 5′-(FAM)[…](TAMRA)-3′ (SEQ ID NO: 268). For human XIAP, the forward primer was 5′-[…]-3′ (SEQ ID NO: 269), the reverse primer was 5′-[…]-3′ (SEQ ID NO: 270), and the probe was 5′-(FAM)[…](TAMRA)-3′ (SEQ ID NO: 271). For human GAPDH, the forward primer was 5′-GAAGGTGAAGGTCGGAGTC-3′ (SEQ ID NO: 272), the reverse primer was 5′-GAAGATGGTGATGGGATTC-3′ (SEQ ID NO: 273), and the probe was 5′-(JOE)[…](TAMRA)-3′ (SEQ ID NO: 274). FAM is 6-carboxyfluoroscein, JOE is 6-carboxy-4,5-dichloro-2,7-dimethoxyfluoroscein, and TAMRA is 6-carboxy-N,N,N′,N′-tetramethylrhodamine. FAM and JOE are 5′ reporter dyes, while TAMRA is a 3′ quencher dye.
Relative quantification of gene expression was performed as described in the PE Biosystems manual using GAPDH as an internal standard. The comparative Ct (cycle threshold) method was used for relative quantitation of IAP mRNA levels compared to GAPDH mRNA levels. Briefly, real-time fluorescence measurements were taken at each PCR cycle and the threshold cycle (Ct) value for each sample was calculated by determining the point at which fluorescence exceeded a threshold limit of 30 times the baseline standard deviation. The average baseline value and the baseline SD are calculated starting from the third cycle baseline value and stopping at the baseline value three cycles before the signal starts to exponentially rise. The PCR primers and/or probes for the specific IAPs were designed to span at least one exon-intron boundary separated by 1 kb or more of genomic DNA, to reduce the possibility of amplifying and detecting genomic DNA contamination. The specificity of the signal, and possible contamination from DNA, were verified by treating some RNA samples with either DNase or RNase, prior to performing the reverse transcription and PCR reaction steps.
A portion of the 96 nucleobase oligomers depicted in Table 2 were rescreened for their ability to knock-down XIAP mRNA in NCI-H460 cells at […] post-transfection.
One day prior to transfection, H460 cells were plated in 6- or 96-well tissue culture plates. Phosphorothioate antisense oligonucleotides were delivered into cells with Lipofectamine 2000 (Life Technologies) in the form of liposome-oligonucleotide complexes. Following a 4.5 or 6 h transfection, the transfection medium was replaced with RPMI medium containing 10% FBS, and the cells incubated for another 24 or 48 h.
Total RNA from H460 cells treated with liposome-oligonucleotide complexes for 6 hours was immediately isolated using RNeasy mini spin columns and DNase treatment (QIAGEN, Valencia, Calif.). Specific XIAP mRNA was measured using a real-time quantitative RT-PCR method. […]

XIAP mRNA [2] = assay: as above; type: cell-based, human; details: 2 × 2 MBO; NCI-H460 cells, 9 hours post-transfection; relative level (mock control 1.01)

| Sequence | XIAP down-regulation H460 RNA (XIAP mRNA [1]) [%] | XIAP RNA (XIAP mRNA [2]) |
| --- | --- | --- |
| CATCTTGGATACTGTCTTT (antisense; sugars from the 5' end m2 d15 m2, backbone, methylation of C and T or U not given here; further chemistry not fully specified) [Code D10] | 55 | 0.54 |
| CTAAATACTAGAGTTCGAC (antisense; sugars from the 5' end m2 d15 m2, backbone and T or U not given here; further chemistry not fully specified) [Code G2] | 55 | 0.44 |
| CTTGAAAGTAATGACTGTG (antisense; sugars from the 5' end m2 d15 m2, backbone, methylation of C and T or U not given here; further chemistry not fully specified) [Code C11] | 52 | 0.44 |
| CTTTGATCTGGCTCAGACT (antisense; sugars from the 5' end m2 d15 m2, backbone, methylation of C and T or U not given here; further chemistry not fully specified) [Code G12] | 76 | 0.24 |
| GAAACCACATTTAACAGTT (antisense; sugars from the 5' end m2 d15 m2, backbone, methylation of C and T or U not given here; further chemistry not fully specified) [Code H12] | 52 | 0.48 |
| GAGTAAAAAAAATGGATAA (mG*mAdGdTdAdAdAdAdAdAdAdAdTdGdGdAdTmA*mA; antisense) [Code G11] | 33 | 0.67 |
| GCAGAATAAAACTAATAAT (antisense; sugars from the 5' end m2 d15 m2, backbone and T or U not given here; further chemistry not fully specified) [Code D2] | 39 | 0.66 |
| GCGGCCCAAAACAAAGAAG (antisense CCGGCCCAAAACAAAGAAG; sugars from the 5' end m2 d15 m2, linkages s1 o16 s1 (s phosphorothioate, o phosphodiester), methylation of C not given here) [Code C7] | 72 | 0.27 |
| GGAAGATTTGTTGAATTTG (antisense; sugars from the 5' end m2 d15 m2, backbone and T or U not given here; further chemistry not fully specified) [Code F7] | 69 | 0.3 |
| GGCCAGTTCTGAAAGGACT (antisense; sugars from the 5' end m2 d15 m2, backbone and T or U not given here; further chemistry not fully specified) [Code D6] | 60 | 0.39 |
| GTCAAATCATTAATTAGGA (antisense; sugars from the 5' end m2 d15 m2, backbone and T or U not given here; further chemistry not fully specified) [Code B2] | 55 | 0.45 |
| GTGTCTGATATATCTACAA (antisense; sugars from the 5' end m2 d15 m2, backbone and T or U not given here; further chemistry not fully specified) [Code H5] | 39 | 0.59 |
| GTTAGTGATGGTGTTTTGT (antisense; sugars from the 5' end m2 d15 m2, backbone and T or U not given here; further chemistry not fully specified) [Code E9] | 43 | 0.69 |
| GTTATAGGAGCTAACAAAT (antisense; sugars from the 5' end m2 d15 m2, backbone and T or U not given here; further chemistry not fully specified) [Code B3] | 34 | 0.64 |
| TACACTTAGAAATTAAATC (antisense; sugars from the 5' end m2 d15 m2, backbone, methylation of C and T or U not given here; further chemistry not fully specified) [Code A12] | 46 | 0.54 |
| TAGATCTGGAACCAGAACC (antisense; sugars from the 5' end m2 d15 m2, backbone, methylation of C and T or U not given here; further chemistry not fully specified) [Code C10] | 53 | 0.56 |
| TATATATTCTTGTCCCTTC (antisense; sugars from the 5' end m2 d15 m2, backbone, methylation of C and T or U not given here; further chemistry not fully specified) [Code A9] | 62 | 0.46 |
| TCGGGTATATGGTGTCTGA (antisense; chemistry not fully specified) [Code A6] | 72 | 0.27 |
| TCTAGAGGGTGGCTCAGGA (antisense; sugars from the 5' end m2 d15 m2, backbone and T or U not given here; further chemistry not fully specified) [Code B1] | 66 | 0.34 |
| TCTGCCATGGATGGATTTC (antisense; sugars from the 5' end m2 d15 m2, backbone, methylation of C and T or U not given here; further chemistry not fully specified) [Code G7] | 41 | 0.66 |
| TGAATTAATTTTTAATATC (antisense; sugars from the 5' end m2 d15 m2, backbone and T or U not given here; further chemistry not fully specified) [Code H1] | 13 | 0.87 |
| TGAGAGCCCTTTTTTTGTT (antisense; sugars from the 5' end m2 d15 m2, backbone and T or U not given here; further chemistry not fully specified) [Code D1] | 75 | 0.25 |
| TGTTCTAACAGATATTTGC (antisense; sugars from the 5' end m2 d15 m2, backbone, methylation of C and T or U not given here; further chemistry not fully specified) [Code G8] | 49 | 0.64 |
| TTACCACATCATTCAAGTC (antisense; sugars from the 5' end m2 d15 m2, backbone and T or U not given here; further chemistry not fully specified) [Code F2] | 34 | 0.64 |
| TTAGCAAAATATGTTTTAA (antisense; sugars from the 5' end m2 d15 m2, backbone and T or U not given here; further chemistry not fully specified) [Code G1] | 33 | 0.67 |
| TTCAGTTTTCCACCACAAC (antisense; sugars from the 5' end m2 d15 m2, backbone, methylation of C and T or U not given here; further chemistry not fully specified) [Code H6] | 68 | 0.31 |
